As usually defined, the GI50 is the concentration that inhibits growth by half.

The results in this text go back to patent US9550764B2, “Fused heterocyclic compounds and their use” (The Institute of Cancer Research: Royal Cancer Hospital, priority 2012, dated 2017).

The subject of one assay is SMOV2 (A). The assay can be described thus: SRB proliferation assay, SMOV2 (PPM1D amplified). The format is cell-based. The conditions noted are these: Homo sapiens, SMOV2, PP1MD amplified cell line (A). From the text:
(§1) All cell lines were obtained from ATCC except KPL1 which was obtained from Leibniz Institute DSMZ-German Collection of Microorganisms and Cell Cultures, and SMOV2 which was obtained from Dr. Hiroaki Itamochi (Tottori University School of Medicine, Yonago, Japan; see also: ‘Establishment and characterization of human ovarian clear cell adenocarcinoma cell line (SMOV-2), and its cytotoxity by anticancer agents’, Yonamine K at al., Hum Cell., 1999, 12(3), 139-48; and ‘PPM1D Is a Potential Therapeutic Target in Ovarian Clear Cell Carcinoma’, David S. P. Tan et al., Clin Cancer Res, 2009, 15, 2269).
(§2) Representative compounds were assessed in a sulforhodamine B (SRB) proliferation assay in the cell lines shown in the Tables below, according to the following general procedure:
(§3) Cells were seeded in a 96 well plate at a number optimized for each cell line as known in the art; for example as described in Viachai et al, Nature Protocols, 2006, 1 1112-1116. Two fold dilutions of the compounds to be tested were made in culture medium so that, when diluted 5×, the final concentration in the wells was from 50 μM to 0.000191 μM (19 concentrations). A day after seeding the cells in 96 well plates, 25 μl of the compound diluted in the culture medium was added to 100 μl of the cells and incubated at 37° C. and 5% CO2 for 3 or 5 more days as required. After this time, cells were fixed by adding 10% ice cold TCA (in H2O) to 3% final concentration in the wells and by incubating at 4° C. for at least 2 h. Plates were washed 4 times in H2O and allowed to dry in the air. Added 100 μl of 0.057% SRB solution to the dried plates and incubated at room temperature for at least 30 min. Removed SRB solution from the plates and washed four times with 1% acetic acid. Plates were left overnight to dry in the air followed by addition of 100 μl of 10 mM Tris pH 10.5 to each well of the dried plates and incubation on a shaker for 5 min to solubilize the SRB. Optical density was measured at wave length of 490 nm using a plate reader and analysis performed to measure the GI50 using GraphPad PRISM.
A general note: The SRB assay estimates cell density from bound dye.

Another assay concerns TOV21G (NA). The assay can be described thus: SRB proliferation assay, TOV21G (non-amplified control). The format is cell-based. Conditions: Homo sapiens, 120 h, 5-day incubation, control not amplified (NA).
From the text: as §1, §2, §3

Setting [1] is: 72 h, 3-day incubation, read-out: GI50 3-day SMOV2 (A) SRB.
Where [2] appears, read: 120 h, 5-day incubation, read-out: GI50 5-day SMOV2 (A) SRB.

SMILES strings stand for the structures. Like-named read-outs stand apart in the source and are kept apart here. Some results are limits rather than exact numbers.

On to `O=c1[nH]c2ccc(-c3csc(-c4ccc(F)cc4CCO)n3)cc2o1` [Compound 9, 6-(2-(4-fluoro-2-(2-hydroxyethyl)phenyl)thiazol-4-yl)benzo[d]oxazol-2(3H)-one], for which the figures for the GI50 with SMOV2 (A) (setting [1]), in the assay on SMOV2 (A) (setting [2]) and in the assay with TOV21G (NA) were 7 nM, 0.6 nM and above 10 µM, respectively.

`Cc1cc(F)cc(C)c1-c1nc(-c2ccc3[nH]c(=O)oc3c2)cs1` [Compound 25, 6-(2-(4-fluoro-2,6-dimethylphenyl)thiazol-4-yl)benzo[d]oxazol-2(3H)-one]: the 50% growth inhibitory concentration (GI50) with SMOV2 (A) (setting [1]) stood at 500 nM.

On to `CCc1cc(F)ccc1-c1nc(-c2ccc3[nH]c(=O)[nH]c3c2)cs1` [Compound 22, 5-(2-(2-ethyl-4-fluorophenyl)thiazol-4-yl)-1H-benzo[d]imidazol-2(3H)-one], for which the GI50 is 0.38 nM in the assay on SMOV2 (A) (setting [1]), 0.2 nM with SMOV2 (A) (setting [2]) and 0.66 µM with TOV21G (NA).

Regarding `CCc1cc(F)ccc1-c1nc(-c2ccc3[nH]c(=O)oc3c2)cs1` [Compound 5, 6-(2-(2-ethyl-4-fluorophenyl)thiazol-4-yl)benzo[d]oxazol-2(3H)-one], the concentration for 50% growth inhibition (GI50) in the assay with SMOV2 (A) (setting [1]) was 13 nM; with SMOV2 (A) (setting [2]), 9.7 nM; with TOV21G (NA) it was above 10 µM.

As for `O=c1[nH]c2ccc(-c3csc(-c4ccc(F)cc4F)n3)cc2o1` [Compound 11, 6-(2-(2,4-difluorophenyl)thiazol-4-yl)benzo[d]oxazol-2(3H)-one], the results for the GI50 with SMOV2 (A) (setting [1]), in the assay with SMOV2 (A) (setting [2]) and with TOV21G (NA) were 7 nM, 0.75 nM and above 10 µM, respectively.

Regarding `O=C1Cc2cc(-c3csc(-c4ccc(F)cc4F)n3)c(Cl)cc2N1` [Compound 29, 6-chloro-5-(2-(2,4-difluorophenyl)thiazol-4-yl)indolin-2-one], the GI50 in the assay on SMOV2 (A) (setting [1]) was 1900 nM.

With `COCCOCc1cc(F)ccc1-c1nc(-c2ccc3[nH]c(=O)oc3c2)cs1` [Compound 17, 6-(2-(4-fluoro-2-((2-methoxyethoxy)methyl)phenyl)thiazol-4-yl)benzo[d]oxazol-2(3H)-one], the GI50 is 1.2 nM in the assay on SMOV2 (A) (setting [1]), 0.1 nM with SMOV2 (A) (setting [2]) and 9.4 µM in the assay with TOV21G (NA).

Consider `O=c1[nH]c2ccc(-c3csc(-c4ccc(F)cc4COCCN4CCCC4)n3)cc2o1` [Compound 20, 6-(2-(4-fluoro-2-((2-(pyrrolidin-1-yl)ethoxy)methyl)phenyl)thiazol-4-yl)benzo[d]oxazol-2(3H)-one], for which the concentration for 50% growth inhibition (GI50) in the assay with SMOV2 (A) (setting [1]) is 13 nM; in the assay on SMOV2 (A) (setting [2]) it was 11 nM; in the assay with TOV21G (NA) it was 1.5 µM.

`CN(C)Cc1cc(F)ccc1-c1nc(-c2ccc3[nH]c(=O)oc3c2)cs1` [Compound 14, 6-(2-(2-((dimethylamino)methyl)-4-fluorophenyl)thiazol-4-yl)benzo[d]oxazol-2(3H)-one]: the concentration for 50% growth inhibition (GI50) amounted to 10 nM in the assay on SMOV2 (A) (setting [1]), 2 nM in the assay on SMOV2 (A) (setting [2]) and 1.6 µM with TOV21G (NA).

Take `CNCc1cc(F)ccc1-c1nc(-c2ccc3[nH]c(=O)oc3c2)cs1` [Compound 13, 6-(2-(4-fluoro-2-((methylamino)methyl)phenyl)thiazol-4-yl)benzo[d]oxazol-2(3H)-one]: the concentration for 50% growth inhibition (GI50) in the assay with SMOV2 (A) (setting [1]) is 32 nM; in the assay on SMOV2 (A) (setting [2]) it was 6 nM; with TOV21G (NA), 1.6 µM.

With `O=c1[nH]c2ccc(-c3csc(-c4ccc(F)cc4CN4CCOCC4)n3)cc2o1` [Compound 15, 6-(2-(4-fluoro-2-(morpholinomethyl)phenyl)thiazol-4-yl)benzo[d]oxazol-2(3H)-one], the GI50 in the assay on SMOV2 (A) (setting [1]) amounted to 520 nM.

As to `Cc1cc(-c2nc(-c3ccc4[nH]c(=O)oc4c3)cs2)ccc1F` [Compound 23, 6-(2-(4-fluoro-3-methylphenyl)thiazol-4-yl)benzo[d]oxazol-2(3H)-one], in the assay with SMOV2 (A) (setting [1]), the GI50 was 250 nM.

As for `O=C1Cc2cc(-c3csc(-c4ccc(F)cc4)n3)c(Cl)cc2N1` [Compound 28, 6-chloro-5-(2-(4-fluorophenyl)thiazol-4-yl)indolin-2-one], in the assay with SMOV2 (A) (setting [1]), the concentration for 50% growth inhibition (GI50) was found to be 93 nM.

As for `Cc1cc(F)ccc1-c1nc(-c2ccc3[nH]c(=O)n(CCN(C)C)c3c2)cs1` [Compound 21, 1-(2-(dimethylamino)ethyl)-6-(2-(4-fluoro-2-methylphenyl)thiazol-4-yl)-1H-benzo[d]imidazol-2(3H)-one], the 50% growth inhibitory concentration (GI50) in the assay with SMOV2 (A) (setting [1]) worked out at 8 nM; in the assay on SMOV2 (A) (setting [2]), 0.1 nM; in the assay with TOV21G (NA) it was 7.2 µM.

In the case of `O=c1[nH]c2ccc(-c3csc(-c4ccc(F)cc4CF)n3)cc2o1` [Compound 12, 6-(2-(4-fluoro-2-(fluoromethyl)phenyl)thiazol-4-yl)benzo[d]oxazol-2(3H)-one], the GI50 was 2 nM in the assay on SMOV2 (A) (setting [1]), 0.3 nM with SMOV2 (A) (setting [2]) and 5.2 µM with TOV21G (NA).

For the compound `Cc1cc(F)ccc1-c1nc(-c2ccc3c(c2)CC(=O)N3)cs1` [Compound 3, 5-(2-(4-fluoro-2-methylphenyl)thiazol-4-yl)indolin-2-one], the GI50 in the assay on SMOV2 (A) (setting [1]) is 1.2 nM; with SMOV2 (A) (setting [2]), 0.5 nM; with TOV21G (NA), above 10 µM.

Consider `O=c1[nH]c2ccc(-c3cccc(-c4ccc(F)cc4)n3)cc2o1` [Compound 30, 6-(6-(4-fluorophenyl)pyridin-2-yl)benzo[d]oxazol-2(3H)-one], for which the GI50 with SMOV2 (A) (setting [1]) is 280 nM; in the assay on SMOV2 (A) (setting [2]) it was 35 nM; in the assay with TOV21G (NA) it was 2.7 µM.

For the compound `Cc1cc(F)ccc1-c1nc(-c2ccc3[nH]c(=O)oc3c2)cs1` [Compound 2, 6-(2-(4-fluoro-2-methylphenyl)thiazol-4-yl)benzo[d]oxazol-2(3H)-one], the figures for the GI50 with SMOV2 (A) (setting [1]), in the assay on SMOV2 (A) (setting [2]) and in the assay with TOV21G (NA) were 1.6 nM, 0.5 nM and above 10 µM, respectively.

Turning to `C=CCc1cc(F)ccc1-c1nc(-c2ccc3[nH]c(=O)oc3c2)cs1` [Compound 7, 6-(2-(2-allyl-4-fluorophenyl)thiazol-4-yl)benzo[d]oxazol-2(3H)-one], in the assay on SMOV2 (A) (setting [1]), the GI50 was found to be 77 nM.

With `Cc1cc(F)ccc1-c1nc(-c2ccc3[nH]c(=O)[nH]c3c2)cs1` [Compound 4, 5-(2-(4-fluoro-2-methylphenyl)thiazol-4-yl)-1H-benzo[d]imidazol-2(3H)-one], the 50% growth inhibitory concentration (GI50) is 0.2 nM in the assay with SMOV2 (A) (setting [1]), 0.1 nM in the assay on SMOV2 (A) (setting [2]) and above 10 µM with TOV21G (NA).

Regarding `Cc1c(-c2nc(-c3ccc4[nH]c(=O)oc4c3)cs2)ccc(F)c1F` [Compound 27, 6-(2-(3,4-difluoro-2-methylphenyl)thiazol-4-yl)benzo[d]oxazol-2(3H)-one], the GI50 was 1.2 nM with SMOV2 (A) (setting [1]), 0.2 nM in the assay on SMOV2 (A) (setting [2]) and above 10 µM in the assay on TOV21G (NA).

On to `O=c1[nH]c2ccc(-c3csc(-c4ccc(F)cc4C4CC4)n3)cc2o1` [Compound 6, 6-(2-(2-cyclopropyl-4-fluorophenyl)thiazol-4-yl)benzo[d]oxazol-2(3H)-one], for which the GI50 in the assay on SMOV2 (A) (setting [1]) came out at 200 nM.

`Cc1c(F)ccc(-c2nc(-c3ccc4[nH]c(=O)oc4c3)cs2)c1F` [Compound 26, 6-(2-(2,4-difluoro-3-methylphenyl)thiazol-4-yl)benzo[d]oxazol-2(3H)-one]: the GI50 with SMOV2 (A) (setting [1]) was above 10000 nM.

Consider `O=c1[nH]c2ccc(-c3csc(-c4ccc(F)cc4CO)n3)cc2o1` [Compound 8, 6-(2-(4-fluoro-2-(hydroxymethyl)phenyl)thiazol-4-yl)benzo[d]oxazol-2(3H)-one], for which the concentration for 50% growth inhibition (GI50) in the assay with SMOV2 (A) (setting [1]) stood at 23 nM; with SMOV2 (A) (setting [2]) it was 0.1 nM; with TOV21G (NA), 9.2 µM.

On to `Cc1cc(F)ccc1-c1cccc(-c2ccc3[nH]c(=O)oc3c2)n1` [Compound 31, 6-(6-(4-fluoro-2-methylphenyl)pyridin-2-yl)benzo[d]oxazol-2(3H)-one], for which the GI50 with SMOV2 (A) (setting [1]) is above 10000 nM.

For `O=c1[nH]c2ccc(-c3csc(-c4ccc(F)cc4COCc4ccccc4)n3)cc2o1` [Compound 10, 6-(2-(2-((benzyloxy)methyl)-4-fluorophenyl)thiazol-4-yl)benzo[d]oxazol-2(3H)-one], the GI50 in the assay on SMOV2 (A) (setting [1]) was 300 nM.

Regarding `CN(C)CCc1cc(F)ccc1-c1nc(-c2ccc3[nH]c(=O)oc3c2)cs1` [Compound 16, 6-(2-(2-(2-(dimethylamino)ethyl)-4-fluorophenyl)thiazol-4-yl)benzo[d]oxazol-2(3H)-one], the GI50 in the assay with SMOV2 (A) (setting [1]) came to 40 nM; with SMOV2 (A) (setting [2]), 6 nM; in the assay on TOV21G (NA), 9.2 µM.

Consider `O=c1[nH]c2ccc(-c3csc(-c4ccc(F)cc4)n3)cc2o1` [Compound 1, 6-(2-(4-fluorophenyl)thiazol-4-yl)benzo[d]oxazol-2(3H)-one], for which the values for the concentration for 50% growth inhibition (GI50) with SMOV2 (A) (setting [1]), in the assay with SMOV2 (A) (setting [2]) and with TOV21G (NA) were 9 nM, 1.1 nM and above 10 µM, respectively.

On to `O=c1[nH]c2ccc(-c3csc(-c4ccc(F)c(F)c4)n3)cc2o1` [Compound 24, 6-(2-(3,4-difluorophenyl)thiazol-4-yl)benzo[d]oxazol-2(3H)-one], for which the concentration for 50% growth inhibition (GI50) with SMOV2 (A) (setting [1]) was found to be 290 nM.
